Measurements as given in patent publication US6680325B2, “Agents for combating plant pests” (Bayer Aktiengesellschaft, priority 1998, dated 2004).
Where two headings read alike, the source gives them in different places.

Experiments:
[1] = test system: Heliothis virescens caterpillars; assay: Heliothis virescens test (soya bean shoot dip); type: in vivo
[2] = test system: Spodoptera frugiperda; assay: Critical concentration test/soil insects, Spodoptera frugiperda (maize); type: in vivo
Excerpt: (§1) The active compound preparation is mixed intimately with soil. Here, the concentration of the active compound in the preparation is almost irrelevant; only the amount by weight of active compound or active compound mixture per volume unit of soil, which is stated in ppm (mg/l), matters.

[3] = test system: Pyrenophora teres; assay: Pyrenophora teres test (barley)/protective; type: in vivo; details: 7 days after inoculation, single value given
Procedure: After the spray coating has dried on, the plants are sprayed with a conidia suspension of Pyrenophora teres.
The plants are then placed in a greenhouse at a temperature of approximately 20° C. and a relative atmospheric humidity of approximately 80%.
Evaluation is carried out 7 days after the inoculation.

[4] = test system: Phaedon cochleariae larvae; assay: Critical concentration test/root-systemic action, Phaedon cochleariae (cabbage); type: in vivo
Procedure: as §1
Soil is filled into 250 ml pots and these are planted with cabbage (Brassica oleracea). The active compound or the active compound combination can thus be taken up by the plant roots from the soil and transported into the leaves.

[5] = test system: Diabrotica balteata - larvae in the soil; assay: Critical concentration test/soil insects, Diabrotica balteata larvae in the soil (maize); type: in vivo
Procedure: (§2) Here, the concentration of the active compound in the preparation is almost irrelevant; only the amount by weight of active compound per volume unit of soil, which is stated in ppm (mg/l), matters. The soil is filled into 0.51 pots and these are allowed to stand at 20° C.
Immediately after preparation, 5 maize corns are placed into each pot. After 3 days, the test insects are placed into the treated soil. After a further 7 days, the efficacy is determined. The efficacy is calculated from the number of maize plants which have emerged.

[6] = test system: Spodoptera frugiperda; assay: Critical concentration test/root systemic action, Spodoptera frugiperda (maize); type: in vivo
Procedure: as §2, with “The preparation of active compound is mixed intimately with soil. Here,” for “Here,”, “virtually immaterial;” for “almost irrelevant;”, “250 ml” for “0.51”
Immediately after preparation, 3 maize corns are placed into each pot. 14 days after the preparation, the test insects are placed into an insect bracket and attached to the plant. 4 days after the infection, the efficacy of the active compound is determined in % by counting the dead and live test insects. The efficacy is 100% if all test insects have been killed; it is 0% if the same number of test insects is alive as in the untreated control.

[7] = test system: Sphaerotheca fuliginea; assay: Sphaerotheca test (cucumber)/protective; type: in vivo; details: 10 days after inoculation
Procedure: After the spray coating has dried on, the plants are inoculated with an aqueous spore suspension of Sphaerotheca fuliginea.
(§3) Evaluation is carried out 10 days after the inoculation.

[8] = test system: Botrytis cinerea; assay: Botrytis test (bean)/protective; details: 2 days after inoculation
Excerpt: If the actual fungicidal activity exceeds the calculated value, then the activity of the combination is superadditive, i.e. a synergistic effect exists. In this case, the efficacy which was actually observed must be greater than the value for the expected efficacy (E) calculated from the formula set out above.
After the spray coating has dried on, 2 small pieces of agar colonized by Botrytis cinerea are placed onto each leaf. The inoculated plants are placed in a dark chamber at approximately 20° C. and 100% relative atmospheric humidity.
2 days after the inoculation, the size of the disease spots on the leaves is evaluated.

[9] = test system: Fusarium culmorum; assay: Fusarium culmorum test (wheat)/seed treatment; type: in vivo; details: 75 g/ha, dry seed dressing, approximately 3 weeks after sowing
Procedure: Fusarium Culmorum Test (Wheat)/Seed Treatment
The active compounds are applied as a dry dressing. They are prepared by extending the active compound in question with ground minerals to give a finely pulverulent mixture which ensures even distribution on the surface of the seeds.
For the dressing, the infected seeds are shaken with the dressing in a closed glass bottle for 3 minutes.
2×100 seeds of the wheat are sown at a depth of 1 cm into standard soil, and the wheat is cultivated in a greenhouse at a temperature of approximately 18° C. and at a relative atmospheric humidity of approximately 95% in seed containers receiving 15 hours of light per day.
The evaluation of the plants for symptoms is carried out approximately 3 weeks after sowding.

[10] = test system: green rice leaf hopper (Nephotettix cincticeps); assay: Nephotettix test (rice seedling dip); type: in vivo
[11] = test system: Puccinia recondita; assay: Puccinia test (wheat)/protective; type: in vivo; details: 18.75 g/ha, 10 days after inoculation
Procedure: After the spray coating has dried on, the plants are sprayed with a conidia suspension of Puccinia recondita.
The plants are then placed in a greenhouse at a temperature of approximately 20° C. and a relative atmospheric humidity of 80% to promote the development of rust pustules.
as §3

[12] = test system: caterpillars of the diamondback moth (Plutella xylostella); assay: Plutella test (cabbage leaf dip); type: in vivo
[13] = test system: Erysiphe graminis f.sp. hordei; assay: Erysiphe test (barley)/protective; type: in vivo; details: 62.5 g/ha, 7 days after inoculation; single value given
[14] = test system: larvae of the mustard beetle (Phaedon cochleariae); assay: Phaedon larvae test (cabbage leaf dip)
[15] = test system: Phytophthora infestans; type: in vivo; details: 3 days after inoculation
[16] = Spodoptera frugiperda, 120 h, 20.00 ppm in soil, read-out: Kill in %
[17] = Spodoptera frugiperda, soil, 120 h, read-out: Kill in %

Molecule: CO/C=C(/C(=O)OC)c1ccccc1Oc1cc(Oc2ccccc2C#N)ncn1 [azoxystrobin]
- Kill in % ([1]; concentration 0.0008 %): 0%
- pest or weed control at 20 ppm [2, 16]: 0%
- Efficacy in % calculated/found ([3]; 18.75 g/ha): 0%
- Kill in % ([4]; 20.00 ppm in soil): 0%

Molecule: CC(C)(C)C(O)C(Oc1ccc(-c2ccccc2)cc1)n1cncn1 (centres unmarked) [bitertanol]
- pest or weed control at 20 ppm [2, 16]: 0%
- Kill in % ([4]; 20.00 ppm in soil): 0%

Molecule: CO/N=C(\C1=NOCCO1)c1ccccc1Oc1ncnc(Oc2ccccc2Cl)c1F [compound according to (48)]
- Kill in % ([5]; 20.00 ppm in soil): 20.00 ppm = 0%

Molecule: Cc1noc(C)c1S(=O)(=O)n1c(Cl)nc2cc3c(cc21)OC(F)(F)O3 [compound according to (50)]
- Kill in % ([5]; 20.00 ppm in soil): 20.00 ppm = 70%

Molecule: OC(Cc1ccccc1Cl)(Cn1nc[nH]c1=S)C1(Cl)CC1 (centres unmarked) [compound of group (49)]
- Kill in % ([6]; 5.00 ppm in soil): 5.00 ppm = 0%

Molecule: CC(C1CC1)C(O)(Cn1cncn1)c1ccc(Cl)cc1 (centres unmarked) [cyproconazole]
- Efficacy in % found ([7]; 10 g/ha): 70%
- pest or weed control at 20 ppm [2, 16]: 0%

Molecule: N#Cc1c[nH]cc1-c1cccc(Cl)c1Cl [fenpiclonil]
- Efficacy in % found ([7]; 500 g/ha): 50%
- pest or weed control at 20 ppm [2, 16]: 0%
- Kill in % ([4]; 20.00 ppm in soil): 0%

Molecule: N#Cc1c[nH]cc1-c1cccc2c1OC(F)(F)O2 [fludioxonil]
- Efficacy in % found ([8]; 10 g/ha): 40%
- Efficacy in % [9]: 0%

Molecule: CNC(=N[N+](=O)[O-])NCc1cnc(Cl)s1 [formula (I)]
- Efficacy in % found ([7]; 10 g/ha): 0%
- Efficacy in % found ([7]; 500 g/ha): 0%
- Efficacy in % found ([8]; 10 g/ha): 0%
- Efficacy in % found ([8]; 100 g/ha): 4%
- Kill in % ([6]; 0.15 ppm in soil): 0.15 ppm = 50%
- Kill in % ([1]; concentration 0.00016 %): 50%
- pest or weed control at 0.06 ppm [2, 17]: 98%
- pest or weed control at 0.3 ppm [2, 17]: 50%
- pest or weed control at 1.25 ppm [2, 17]: 100%
- Efficacy in % calculated/found ([3]; 18.75 g/ha): 20%
- Efficacy in % calculated/found ([3]; 62.5 g/ha): 0%
- Kill in % ([10]; concentration 0.00000128 %): 0%
- Efficacy in % [11]: 0%
- Kill in % ([12]; concentration 0.0008 %): 0%
- Efficacy in % [9]: 0%
- Kill in % ([4]; 0.30 ppm in soil): 50%
- Kill in % ([4]; 0.60 ppm in soil): 80%
- Kill in % ([4]; 1.25 ppm in soil): 100%
- Efficacy in % calculated/found [13]: 0%
- Kill in % ([5]; 0.15 ppm in soil): 0.15 ppm = 0%
- Kill in % ([5]; 0.30 ppm in soil): 0.30 ppm = 50%
- Kill in % ([14]; concentration 0.000032 %): 0%
- Kill in % ([14]; concentration 0.00016 %): 20%

Molecule: CO/N=C(/C(=O)OC)c1ccccc1COc1ccccc1C [kresoxim-methyl]
- Efficacy in % calculated/found [13]: 0%
- Kill in % ([14]; concentration 0.1 %): 0%

Molecule: COCC(=O)N(c1c(C)cccc1C)C(C)C(=O)OC (centres unmarked) [metalaxyl]
- pest or weed control at 20 ppm [2, 16]: 0%
- Efficacy in % found ([15]; 50 g/ha): 42%
- Kill in % ([10]; concentration 0.1 %): 0%
- Kill in % ([12]; concentration 0.1 %): 0%
- Kill in % ([4]; 20.00 ppm in soil): 0%

Molecule: CC(C)(C)C(O)(CCc1ccc(Cl)cc1)Cn1cncn1 (centres unmarked) [tebuconazole]
- Efficacy in % found ([8]; 100 g/ha): 80%
- pest or weed control at 20 ppm [2, 16]: 0%
- Kill in % ([12]; concentration 0.02 %): 0%
- Kill in % ([4]; 20.00 ppm in soil): 0%

Molecule: CC(C)(C)C(O)C(Oc1ccc(Cl)cc1)n1cncn1 (centres unmarked) [triadimenol]
- pest or weed control at 20 ppm [2, 16]: 0%
- Efficacy in % found ([15]; 500 g/ha): 0%
- Efficacy in % [11]: 13%
- Efficacy in % [9]: 13.5%
- Kill in % ([4]; 20.00 ppm in soil): 0%

Molecule: [O-][n+]1nc(-n2ccnc2)nc2ccc(Cl)cc21 [triazoxides]
- Efficacy in % calculated/found ([3]; 62.5 g/ha): 40%

Molecule: propiconazole
- Kill in % ([2]; 20.00 ppm in soil): 0%
- Efficacy in % found ([15]; 500 g/ha): 5%
- Kill in % ([4]; 20.00 ppm in soil): 0%
